Values of other authors in US20250177267A1, “A CLEANSING COMPOSITION” (Conopco, Inc., d/b/a UNILEVER, priority 2022, published 2025).

Conditions: prior art acids with pKa greater than 4.5

pKa: 4.72
SMILES: CCCCCC(=O)O [hexanoic acid]
